Assay results reported in patent US20050130909A1 (priority 2002, published 2005).
Where “and” joins values, the source holds several entries; their conditions need not be identical. Identical values can stand only once.

Experiments:
Gram-positive pathogen = assay: Phase II SSTI trial: microbiological response, all Gram-positive pathogens; format: in vivo, human; settings: for Success rate by pathogen: Total organisms: MITT at FU; for Microbiologic success rate (by patient): MITT population; for Eradication/presumed eradication rate, all organisms: microbiologically-evaluable population at FU
Description: (§1) This randomized, controlled study evaluated the safety and efficacy of two dose regimens of dalbavancin.
(§2) There were 62 patients randomized into the study; all received at least one dose of study medication. Four study populations were evaluated for safety and efficacy and were defined as follows: The intent-to-treat (ITT) population included all patients who received at least one dose of study drug (all randomized study subjects).
(§3) Microbiological outcome, a secondary efficacy variable, was assessed in the subpopulation of patients who had microbiologically documented SSTI (i.e., at least one identified baseline pathogen). A microbiologic response was assessed for each Gram-positive pathogen identified at baseline (i.e., eradication, presumed eradication, persistence, presumed persistence). For patients for whom follow-up cultures were not performed, the microbiologic responses for baseline pathogens were presumed on the basis of the clinical response. Microbiologic response by patient at the EOT and FU visits was graded as success (i.e., all Gram-positive organisms eradicated or presumed eradicated) or failure (i.e., at least one Gram-positive organism persisted or presumed to have persisted, multiple pathogens with partial eradication). At both the EOT and FU visits, colonization and superinfection were assessed. At the FU visit, a patient's bacteriological response could also include recurrence.

[1] = tested on: Methicillin-sensitive S. aureus; assay: Phase II SSTI trial: microbiological response by pathogen; format: in vivo, human; settings: MITT at FU
Description: as §1, §2, §3

[2] = tested on: Miscellaneous streptococcus species; assay: as above; format: in vivo, human; settings: MITT at FU
Description: as §1, §2, §3

S. aureus = assay: as above; format: in vivo, human; settings: for Success rate by pathogen: All S. aureus: MITT at FU; for S. aureus eradication rate: microbiologically-evaluable population at FU
Description: as §1, §2, §3

[3] = Phase II SSTI trial: adverse events (ITT population); format: in vivo, human
Description: as §1
Each patient who received at least one dose of study drug (ITT population) was evaluated for drug safety through monitoring of adverse events (AE), including abnormal clinical laboratory test results and vital signs. AE were rated by the investigator as to their severity (mild, moderate, severe, life-threatening), and by the relationship to the study drug (not related, unlikely related, possibly related, or probably related).

[4] = Phase II SSTI trial: dalbavancin plasma concentrations; format: in vivo, human
[5] = Safety assessments in healthy subjects; format: in vivo, human
Description: Adverse events were recorded and assessed for severity and relationship to study drug. Laboratory data (chemistry panel, CBC with differential, urinalysis) were collected and assessed for changes from baseline and out-of-range values. ECG, physical examination, and vital signs were obtained, and changes from baseline were assessed.

dog albumin = dog albumin (Canis lupus familiaris, UniProt P49822); assay: Protein binding by ITC; settings: pH 7.4
Sequence of dog albumin (P49822 25-608): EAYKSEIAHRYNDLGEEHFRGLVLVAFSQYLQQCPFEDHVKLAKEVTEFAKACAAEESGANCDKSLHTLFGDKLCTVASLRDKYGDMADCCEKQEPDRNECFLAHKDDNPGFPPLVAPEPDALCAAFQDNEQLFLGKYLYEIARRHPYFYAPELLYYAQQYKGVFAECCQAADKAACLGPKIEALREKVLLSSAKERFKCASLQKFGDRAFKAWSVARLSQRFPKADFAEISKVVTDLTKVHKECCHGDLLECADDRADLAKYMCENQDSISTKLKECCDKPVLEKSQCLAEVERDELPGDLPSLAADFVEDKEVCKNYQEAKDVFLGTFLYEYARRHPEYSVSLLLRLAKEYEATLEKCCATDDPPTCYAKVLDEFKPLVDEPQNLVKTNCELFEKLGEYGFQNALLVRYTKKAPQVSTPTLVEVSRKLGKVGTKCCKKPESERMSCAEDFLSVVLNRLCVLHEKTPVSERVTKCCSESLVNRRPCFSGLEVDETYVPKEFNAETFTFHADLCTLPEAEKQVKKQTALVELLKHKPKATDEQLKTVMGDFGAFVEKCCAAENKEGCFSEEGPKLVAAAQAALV

bovine albumin = bovine albumin (Bos taurus, UniProt P02769); assay: Protein binding by ITC; settings: 25° C.; pH 7.4
Sequence of bovine albumin (P02769 25-607): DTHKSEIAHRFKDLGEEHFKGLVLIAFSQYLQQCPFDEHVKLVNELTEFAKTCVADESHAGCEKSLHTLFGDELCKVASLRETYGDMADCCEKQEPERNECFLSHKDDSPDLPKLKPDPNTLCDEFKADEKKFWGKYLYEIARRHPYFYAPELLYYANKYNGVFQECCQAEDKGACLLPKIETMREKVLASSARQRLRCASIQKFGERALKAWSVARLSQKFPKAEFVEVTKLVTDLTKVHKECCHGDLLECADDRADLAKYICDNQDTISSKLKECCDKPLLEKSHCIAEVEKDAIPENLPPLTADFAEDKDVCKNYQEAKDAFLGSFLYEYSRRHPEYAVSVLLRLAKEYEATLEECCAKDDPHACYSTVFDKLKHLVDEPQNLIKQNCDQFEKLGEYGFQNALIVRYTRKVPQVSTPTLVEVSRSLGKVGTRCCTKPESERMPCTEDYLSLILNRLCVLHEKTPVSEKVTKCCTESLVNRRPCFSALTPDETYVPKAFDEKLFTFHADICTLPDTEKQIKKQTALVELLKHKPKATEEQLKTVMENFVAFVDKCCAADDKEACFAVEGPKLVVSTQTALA

human α-glycoprotein = assay: Protein binding by ITC; settings: for Apparent binding affinity Ka: pH 7.4; for Calculated percent Binding to Human α-glycoprotein: protein […]10^−5 M assumed
[6] = Stability of dalbavancin in plasma; format: in vitro ADME, human; settings: 1.5 and 90 μg/ml
HSA = HSA (Homo sapiens, UniProt P02768); assay: MALDI-TOF mass spectrometry of protein-dalbavancin complexes; format: binding; settings: ratios (1:2, 1:10)
Sequence of HSA (P02768 25-609): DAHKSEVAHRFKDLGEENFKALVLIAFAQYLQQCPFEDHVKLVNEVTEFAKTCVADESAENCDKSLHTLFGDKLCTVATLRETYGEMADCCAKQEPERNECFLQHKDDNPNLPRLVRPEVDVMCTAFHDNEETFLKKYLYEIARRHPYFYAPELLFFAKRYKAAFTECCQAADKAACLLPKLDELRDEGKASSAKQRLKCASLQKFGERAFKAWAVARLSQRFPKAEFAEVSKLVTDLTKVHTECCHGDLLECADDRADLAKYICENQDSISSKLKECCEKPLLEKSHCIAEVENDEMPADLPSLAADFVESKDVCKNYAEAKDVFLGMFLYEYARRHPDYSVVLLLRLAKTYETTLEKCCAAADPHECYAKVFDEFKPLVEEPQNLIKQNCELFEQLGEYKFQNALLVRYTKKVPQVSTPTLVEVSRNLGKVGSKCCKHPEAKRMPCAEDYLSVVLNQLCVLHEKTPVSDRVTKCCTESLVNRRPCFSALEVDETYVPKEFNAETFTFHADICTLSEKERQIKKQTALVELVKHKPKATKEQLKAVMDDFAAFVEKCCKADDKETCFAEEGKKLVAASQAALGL
Description: The samples were prepared for analysis using the dried droplet technique. Spectra were obtained on a BRUKER FLEX III, tof mass spectrometer previously tuned and calibrated using standard bovine serum albumin, acquiring and averaging spectra generated by 200 laser shots. Matrix: 9 parts of DHB-9 (2,5-dihydroxy-benzoic acid) saturated in acetonitrile/H2O (50:50), 1 part of sinapinic acid saturated in acetonitrile/H2O (50:50). 0.5 ul of sample solution and 0.5 ul of matrix solution were mixed and placed on the laser target.

Lys-D-Ala-D-Lactate = assay: ITC, preliminary experiments; format: binding; settings: absence of serum proteins
staphylococci = assay: In vitro antibacterial activity; format: cell-based; settings: including some teicoplanin-resistant strains
[7] = single-dose dalbavancin (N = 20)
[8] = AE possibly related, upper limit of normal 40 IU/L
[9] = single 1000 mg IV dose, healthy subjects
[10] = six healthy volunteers, single 1000 mg IV

CN[C@H]1C(=O)N[C@@H]2Cc3ccc(cc3)Oc3cc4cc(c3O[C@@H]3O[C@H](C(=O)O)[C@@H](O)[C@H](O)[C@H]3NC(=O)CCCCCCCCC(C)C)Oc3ccc(cc3Cl)[C@@H](O)[C@@H]3NC(=O)[C@H](NC(=O)[C@@H]4NC(=O)[C@@H](NC2=O)c2cc(cc(O)c2Cl)Oc2cc1ccc2O)c1ccc(O)c(c1)-c1c(O[C@H]2O[C@H](CO)[C@@H](O)[C@H](O)[C@@H]2O)cc(O)cc1[C@@H](C(=O)NCCCN(C)C)NC3=O [Dalbavancin]
Success rate by pathogen: Total organisms (Gram-positive pathogen; single-dose 1100 mg): 7/16 (43.8%) | Success rate by pathogen: Total organisms (Gram-positive pathogen; two-dose 1000/500 mg): 14/16 (87.5%) | Microbiologic success rate (by patient) (Gram-positive pathogen; EOT, single-dose 1100 mg): 5/14 (35.7) % | Microbiologic success rate (by patient) (Gram-positive pathogen; EOT, two-dose 1000/500 mg): 10/13 (76.9) % | Microbiologic success rate (by patient) (Gram-positive pathogen; FU, single-dose 1100 mg): 3/14 (21.4) % | Microbiologic success rate (by patient) (Gram-positive pathogen; FU, two-dose 1000/500 mg): 9/13 (69.2) % | Microbiologic success rates, summary over both visits (EOT, FU) (Gram-positive pathogen; microbiologically-evaluable and MITT populations, single dose of dalbavancin): < 40% | Eradication/presumed eradication rate, all organisms (Gram-positive pathogen; single-dose dalbavancin): 58.3% and 58% | Eradication/presumed eradication rate, all organisms (Gram-positive pathogen; two-dose dalbavancin): 92.3% and 92% | Success rate by pathogen: Methicillin-sensitive ([1]; single-dose 1100 mg): 2/7 (29%) | Success rate by pathogen: Methicillin-sensitive ([1]; two-dose 1000/500 mg): 5/6 (83%) | Success rate by pathogen: Miscellaneous streptococcus species ([2]; single-dose 1100 mg): 2/3 (67%) | Success rate by pathogen: Miscellaneous streptococcus species ([2]; two-dose 1000/500 mg): 4/4 (100%) | Success rate by pathogen: All S. aureus (S. aureus; single-dose 1100 mg): 5/13 (38%) | Success rate by pathogen: All S. aureus (S. aureus; two-dose 1000/500 mg): 9/11 (82%) | S. aureus eradication rate (S. aureus; single-dose dalbavancin): 50% | S. aureus eradication rate (S. aureus; two-dose dalbavancin): 90% | Hepatotoxicity or nephrotoxicity ([3]; Phase II trial): no evidence that dalbavancin induces any degree of clinically significant hepatotoxicity or nephrotoxicity | Serious adverse events related to study drug ([3]; Phase II trial, both dalbavancin regimens): no serious adverse events related to study drug treatment | Tolerability ([3]; Phase II trial, both doses): well tolerated | AE leading to discontinuation of study medication [3, 7]: 0 | Patients with ≧1 AE [3, 7]: 95% | ≧1 AE possibly/probably related to treatment [3, 7]: 55% | ≧1 AE possibly/probably related to treatment ([3]; single-dose dalbavancin (N = 20), listed as dalbavancin): 55% | AE leading to discontinuation of study medication ([3]; two-dose dalbavancin (N = 21)): 0 | Adverse event: Constipation ([3]; two-dose dalbavancin (N = 21)): 4.8% | Patients with ≧1 AE ([3]; two-dose dalbavancin (N = 21)): 76.2% | ≧1 AE possibly/probably related to treatment ([3]; two-dose dalbavancin (N = 21)): 48% | ≧1 AE possibly/probably related to treatment ([3]; two-dose dalbavancin (N = 21), listed as dalbavancin): 48% | Dalbavancin plasma level maintained ([4]; additional week, with an additional dose of 500 mg IV on day 8): greater than 20 mg/l | Mean dalbavancin plasma concentration (mean±SD) ([4]; single-dose regimen 1100 mg IV, Study day 8): 31.1 ± 7.1 mg/L | Mean dalbavancin plasma concentration (mean±SD) ([4]; single-dose regimen, Study day 10): 25.2 ± 4.8 mg/L | Mean dalbavancin plasma concentration (mean±SD) ([4]; single-dose regimen, Study day 24): 10.2 ± 3.5 mg/L | Dalbavancin plasma concentration, all patients ([4]; through the first week following the first dose): greater than 20 mg/l | Mean dalbavancin plasma concentration (mean±SD) ([4]; two-dose regimen 1000/500 mg IV, Study day 8 (prior to the second dose)): 30.4 ± 8.2 mg/L | Mean dalbavancin plasma concentration (mean±SD) ([4]; two-dose regimen, Study day 20): 21.2 ± 10.0 mg/L | Mean dalbavancin plasma concentration (mean±SD) ([4]; two-dose regimen, Study day 34): 9.0 ± 4.4 mg/L | Eosinophilia, individual subject value ([5]; AE possibly related, upper limit of normal 0.4×10^3/μL): 500 µL⁻¹ | Elevated ALT, individual subject value [5, 8]: 46 IU/L and 54 IU/L | Elevated AST, individual subject value [5, 8]: 42 IU/L | Elevated LDH, individual subject value ([5]; AE possibly related, upper limit of normal 90 IU/L): 303 IU/L | Post-baseline hematology, chemistry, vital signs, and ECG ([5]; single 1000 mg IV): No trends were seen | Deaths or serious adverse events [5, 9]: No subject deaths or serious adverse events were reported | Tolerability [5, 9]: well-tolerated | AEs possibly related to study medication [5, 10]: Three volunteers reported AEs that were possibly related to study medication | Adverse events, incidence and intensity [5, 10]: All volunteers reported at least one AE, all of mild intensity | Apparent binding affinity Ka (dog albumin; 25° C.): 0.62 (±0.09) ×10^5 M^−1 | Apparent binding affinity Ka (dog albumin; 37° C.): 0.50 (±0.13) ×10^5 M^−1 | Apparent binding affinity Ka (bovine albumin): 1.38 (±0.14) ×10^5 M^−1 | Apparent binding affinity Ka (human α-glycoprotein; 25° C.): 1.84 (±0.36) ×10^5 M^−1 | Apparent binding affinity Ka (human α-glycoprotein; 37° C.): 4.8 (±2.3) ×10^5 M^−1 | Calculated percent Binding to Human α-glycoprotein (human α-glycoprotein; antibiotic 1 μM): 73.0% | Calculated percent Binding to Human α-glycoprotein (human α-glycoprotein; antibiotic 10 μM): 68.2% | Calculated percent Binding to Human α-glycoprotein (human α-glycoprotein; antibiotic 100 μM): 26.2% | Calculated percent Binding to Human α-glycoprotein (human α-glycoprotein; antibiotic 165 μM): 16.9% | Calculated percent Binding to Human α-glycoprotein (human α-glycoprotein; antibiotic 250 μM): 11.4% | Calculated percent Binding to Human α-glycoprotein (human α-glycoprotein; antibiotic 500 μM): 5.9% | Stability in processed plasma samples ([6]; 24 hours at room temperature): stable after 24 hours at room temperature | Stability in human plasma, freeze-thaw ([6]; three cycles of freeze-thaw): stable after three cycles of freeze-thaw treatment | Complex with HSA at very high dalbavancin to protein ratios (HSA): complexes containing 2 molecules of dalbavancin per protein molecule can be observed | Binding to Lys-D-Ala-D-Lactate (Lys-D-Ala-D-Lactate): no evidence of binding | In vitro activity relative to teicoplanin and vancomycin (staphylococci): more active in vitro against staphylococci (including some teicoplanin-resistant strains) than teicoplanin and vancomycin
